According to patent publication US12180138B2, “Lipid nanoparticle compositions for delivering circular polynucleotides” (Orna Therapeutics, Inc., priority 2021, dated 2024):

Experiments:
[1] = test system: splenic T cells; assay: mOX40L expression in splenic T cells after IV LNP-circular RNA; assay type: in vivo, C57BL/6 mice; conditions: 1 mg/kg intravenously, 24 hours
Procedure: The ionizable lipid:helper lipid: cholesterol:PEG-lipid molar ratio of these LNPs was 50:10:38.5:1.5. C57BL/6 female mice (6-8 weeks, n=4) were dosed at 1 mg/kg intravenously. At 24 hours, the spleen from the mice were collected for flow cytometry analysis, tested for weight loss and measured for serum alanine aminotransferase (ALT) after blood collection. mOX40L expression was measured in splenic T cells.

[2] = test system: splenic immune cells (T cells, myeloid cells, B cells, NK cells); assay: mOX40L expression in splenic immune cells after IV LNP-circular RNA (flow cytometry); assay type: in vivo, C57BL/6 mice; conditions: 1 mg/kg intravenously, 24 hours; IL:P 5.7; vs Lipid 15 of Table 10f
Procedure: The ionizable lipid:helper lipid:cholesterol:PEG-lipid molar ratio of these LNPs was 50:10:38.5:1.5. Dialysis of the LNPs were performed using PBS. C57BL/6 female mice (6-8 weeks, n=4) were dosed at either LNP comprising Lipid 1 of Table 10e or the Lipid 15 of Table 10f at 1 mg/kg intravenously. At 24 hours, the spleen from the mice were collected for flow cytometry analysis. mOX40L transfection of Lipid 1 of Table 10e and Lipid 15 of Table 10f were compared in T cells, myeloid cells, B cells, and NK cells.

CCCCCCCCCCCCC(O)CN(CCCO)CCCCCCCC(=O)OC(CCCCCCCC)CCCCCCCC (centres unmarked) [Lipid 1 of Table 10e, heptadecan-9-yl 8-((3-hydroxypropyl)(2-hydroxytetradecyl)amino)octanoate]
mOX40L expression in splenic T cells [1]: expression of mOX40L in splenic T cells | mOX40L transfection in splenic immune cells [2]: comparable or higher levels of mOX40L transfection
